Biological target: T1, CD28-CD80 interactions (Homo sapiens, UniProt P33681)
T1 sequence (P33681 35-242 limits assumed): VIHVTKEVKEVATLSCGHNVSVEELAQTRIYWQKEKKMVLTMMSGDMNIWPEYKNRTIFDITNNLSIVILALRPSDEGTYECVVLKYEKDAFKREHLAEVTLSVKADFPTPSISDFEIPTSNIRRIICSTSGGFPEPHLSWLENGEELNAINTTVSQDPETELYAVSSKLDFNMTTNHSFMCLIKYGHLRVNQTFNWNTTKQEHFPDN
Assay: Time resolved fluorescence competition assay: CD28-CD80 interactions
Assay type: binding
Conditions: inhibition of CD28-mFc (5 nM) / CD80FabC215 (10 nM) interaction; representative results
Method: Time resolved fluorescence competition assay protocol: CD28-CD80 interactions.
50 mM Tris-HCl, 150 mM NaCl, 0.05% Tween 20, pH 7.8, containing 0.1% BSA (w/v), added prior to use.
The substances to be tested for inhibitory effects were serially diluted from stock concentrations of 20 mM (DMSO) in assay buffer to preparation concentrations of 200, 100, 50 and 25 μM. The final concentration in the wells was 100, 50, 25 and 12.5 μM, respectively. The maximum final DMSO concentration tolerated in the assay was 0.5%. Where appropriate, the dilution series was adjusted and extended to measure the IC50.
CTLA4-hIg(Fc) was diluted to working concentrations of 20 nM and 2 nM, resulting in final concentrations of 10 nM and 1 nM in the well. At these concentrations (10 nM and 1 nM) approximately 90% and 30% inhibition levels were observed.
Preparation of Reagent Mixture
To a tube containing 1.1 ml assay buffer, the following reagents were added:
900 μl of the above reagent mixture was transferred to a new tube. CD80FabC215 was added at a preparation concentration of 20 nM, (i.e. 4.3 μl from 0.4 mg/ml stock). The final concentration in the well was 10 nM.
To the remaining 200 μl reagent mixture C215Fab was added as control for non-specific binding (NSB). 0.5 μl from a 0.36 mg/ml stock gave a preparation concentration of 20 nM and a final concentration in the well of 10 nM.
To a black, half area, 96-well microtiter plate, the C215Fab containing reagent mixture was transferred to column 12, row E-H (4 wells), 10 μl/well with a single channel electronic pipette. 10 μl/well of the CD80FabC215 containing reagent mixture was transferred with a single channel electronic pipette to all other wells on the plate
B0: Assay buffer, 10 μl/well was pipetted to the CD80FabC215 containing wells in column 12, row A-D (4 wells).
NSB: Assay buffer, 10 μl/well was pipetted to the C215Fab containing wells in column 12, row E-H (4 wells).
CTLA4-hIg(Fc), 10 μl/well of 20 and 2 nM (final conc 10 and 1 nM) was pipetted in duplicate into well 11 E-F and 11 G-H.
Sample dilution series: 10 μl/well in duplicate to the remaining wells.
The plate was covered with a plastic lid and incubated in the dark: Initially for 1 h on a shaker platform at room temperature (RTS), stationary at +4° C. overnight, and finally 1 h RTS before reading.
The plate was measured on a Victor 1420 Multilabel Counter using the LANCE protocol (#2) measuring emission at dual wavelengths, from both APC (665 nm) and Europium (615 nm). First measurement: Excitation 340 nm, emission 665 nm, delay 50 μs, window time 200 μs. Second measurement: Excitation 340 nm, emission 615 nm, delay 50 μs, window time 200 μs.
The fluorescence signal ratio 1000* 665 nm/615 nm, from which the percentage inhibition was calculated, was determined. A logit b plot (Logit b=LN (% Bound/(100% −% Bound, plotted against Log conc) was performed from which IC50 was measured.

Row | SMILES | IC50 [nM]
1 | O=C(O)CNC(=O)c1ccc(-n2nc3c4ccccc4[nH]cc-3c2=O)cc1 [2-[4-(3-Oxo-3,5-dihydro-pyrazolo[4,3-c]quinolin-2-yl)-benzoylamino]-2-acetic Acid] | 3900
2 | O=C(O)c1ccc(-n2nc3c4ccccc4scc-3c2=O)cc1 [4-(3-Oxo-3H-thiochromeno[4,3-c]pyrazol-2-yl)benzoic Acid] | 13500
3 | O=C(O)CCc1ccc(-n2nc3c4ccccc4[nH]cc-3c2=O)cc1 [[4-(3-Oxo-3,5-dihydro-pyrazolo[4,3-c]quinolin-2-yl)-phenyl]-propionic Acid] | 1600

These reach a lower IC50. Values come first.

Row | IC50 [nM] | SMILES
4 | 270 | O=C(O)c1ccc(-n2nc3c4ccccc4[nH]cc-3c2=O)cc1Cl [2-Chloro-4-(3-oxo-3,5-dihydro-pyrazolo[4,3-c]quinolin-2-yl)-benzoic Acid]
5 | 880 | O=C(O)c1cccc(-n2nc3c4ccccc4[nH]cc-3c2=O)c1 [3-(3-Oxo-3,5-dihydro-pyrazolo[4,3-c]quinolin-2-yl)-benzoic Acid]
6 | 480 | O=C(O)c1ccc(-n2nc3c4ccccc4[nH]cc-3c2=O)cc1 [4-(3-oxo-3,5-dihydro-pyrazolo[4,3-c]quinolin-2-yl)-benzoic Acid]
7 | 600 | O=C(O)CCC(=O)Nc1ccc(-n2nc3c4ccccc4[nH]cc-3c2=O)cc1 [N-[4-(3-Oxo-3,5-dihydro-pyrazolo[4,3-c]quinolin-2-yl)-phenyl]-succinamic Acid]
